Reference: patent US20240383869A1, “ARYLACETYL INHIBITORS OF TG2 AND USES THEREOF” (UNIVERSITY OF OTTAWA, priority 2021, published 2024)

How the values were obtained:
[1] = biological target: T1, TG3a (Homo sapiens, UniProt Q08188); assay: Fluorescence isopeptidase activity assay (A101 FRET-quenched probe), isozyme selectivity; type: biochemical; conditions: normalized [I]/α
T1 construct: purchased Zedira
T1 sequence (Q08188 2-467 limits assumed): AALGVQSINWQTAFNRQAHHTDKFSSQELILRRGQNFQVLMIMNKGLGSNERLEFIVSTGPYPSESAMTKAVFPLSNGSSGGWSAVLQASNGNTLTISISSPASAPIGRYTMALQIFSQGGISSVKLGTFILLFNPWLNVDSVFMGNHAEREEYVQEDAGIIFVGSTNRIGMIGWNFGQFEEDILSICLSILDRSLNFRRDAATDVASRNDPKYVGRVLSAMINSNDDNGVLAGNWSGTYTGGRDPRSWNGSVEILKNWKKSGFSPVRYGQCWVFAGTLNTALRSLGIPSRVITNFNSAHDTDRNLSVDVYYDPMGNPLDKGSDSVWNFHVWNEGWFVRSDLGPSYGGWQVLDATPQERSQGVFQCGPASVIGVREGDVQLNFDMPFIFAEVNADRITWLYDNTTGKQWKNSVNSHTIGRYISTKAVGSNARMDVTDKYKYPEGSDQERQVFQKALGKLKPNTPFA
T1 sequence (Q08188 468-693 partner limits assumed): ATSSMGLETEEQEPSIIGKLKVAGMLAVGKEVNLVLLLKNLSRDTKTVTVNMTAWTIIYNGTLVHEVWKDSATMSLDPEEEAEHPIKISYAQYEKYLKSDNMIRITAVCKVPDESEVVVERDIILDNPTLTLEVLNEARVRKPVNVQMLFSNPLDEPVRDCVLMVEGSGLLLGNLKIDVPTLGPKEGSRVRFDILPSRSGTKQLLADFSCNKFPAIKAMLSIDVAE
Experimental: (§1) Fluorescence isopeptidase activity assay. The isopeptidase activity of pre-activated TG3a and FXIIIa (purchased from Zedira) was measured via a fluorescence-based assay as described (Kirily, R. et al., “Isopeptidase activity of human transglutaminase 2: disconnection from transamidation and characterization by kinetic parameters.” Amino Acids 2016, 48 (1), 31-40) using the commercially available peptidic FRET quenched probe A101. Briefly, the final concentration in the reaction mixture contained 50 mM Tris (pH 7.0), 10 mM CaCl2, 100 mM NaCl, 2.8 mM TCEP, 50 μM A101 and 14 mM H-Gly-OMe. The reaction was monitored at 25° C. using a BioTek Synergy 4 plate reader (Ex/Em: 318/413 nm). Enzymatic inhibition assays were run under Kitz and Wilson conditions (Kitz, R. and Wilson, I. B., “Esters of methanesulfonic acid as irreversible inhibitors of acetylcholinesterase.” J. Biol. Chem. 1962, 237, 3245-49), which were established for TG3a and FXIIIa at a substrate (A101) concentration of 50 μM using enzyme concentrations of 0.17 μM and 0.11 μM for TG3a and FXIIIa, respectively.

[2] = biological target: T2, FXIIIa (Homo sapiens, UniProt P00488); assay: as above; type: biochemical; conditions: normalized [I]/α
T2 construct: purchased Zedira
T2 sequence (P00488 39-732 limits assumed): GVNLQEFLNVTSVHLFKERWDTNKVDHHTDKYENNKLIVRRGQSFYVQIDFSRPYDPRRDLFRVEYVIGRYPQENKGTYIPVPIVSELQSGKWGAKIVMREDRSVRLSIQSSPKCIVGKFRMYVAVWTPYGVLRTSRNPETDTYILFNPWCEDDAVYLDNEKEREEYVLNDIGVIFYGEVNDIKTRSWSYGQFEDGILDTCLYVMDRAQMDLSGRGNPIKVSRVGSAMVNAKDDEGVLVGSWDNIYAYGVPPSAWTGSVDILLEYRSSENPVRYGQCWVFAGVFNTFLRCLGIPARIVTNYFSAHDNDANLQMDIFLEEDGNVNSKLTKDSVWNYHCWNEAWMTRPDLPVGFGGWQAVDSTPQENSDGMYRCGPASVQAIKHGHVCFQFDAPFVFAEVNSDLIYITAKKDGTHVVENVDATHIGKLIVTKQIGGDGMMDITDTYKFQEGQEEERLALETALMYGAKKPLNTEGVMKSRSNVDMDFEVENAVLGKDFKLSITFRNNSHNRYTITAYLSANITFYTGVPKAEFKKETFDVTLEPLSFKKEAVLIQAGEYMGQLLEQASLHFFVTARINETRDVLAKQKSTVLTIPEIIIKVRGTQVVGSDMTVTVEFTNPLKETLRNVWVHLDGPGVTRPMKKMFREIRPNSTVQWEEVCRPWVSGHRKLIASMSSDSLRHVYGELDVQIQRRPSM
Experimental: as §1

SMILES | inhibition of TG3a [1] | inhibition of FXIIIa [2]
C=CC(=O)NCCCC[C@H](NC(=O)Cc1ccccc1C)C(=O)N1CCN(C(=O)c2cccc3ccccc23)CC1 [Inhibitor 74, (S)-N-(6-(4-(1-naphthoyl)piperazin-1-yl)-5-(2-(2-methylphenyl)acetamido)-6-oxohexyl)acrylamide] | none of these inhibitors showed any detectable inhibition | none of these inhibitors showed any detectable inhibition
C=CC(=O)NCCCC[C@H](NC(=O)Cc1ccccc1F)C(=O)N1CCN(C(=O)c2cccc3ccccc23)CC1 [Inhibitor 72, (S)-N-(6-(4-(1-naphthoyl)piperazin-1-yl)-5-(2-(2-fluorophenyl)acetamido)-6-oxohexyl)acrylamide] | none of these inhibitors showed any detectable inhibition | none of these inhibitors showed any detectable inhibition
C=CC(=O)NCCCC[C@H](NC(=O)OCc1ccccc1)C(=O)N1CCN(C(=O)c2cccc3ccccc23)CC1 [AA9, reference compound] | none of these inhibitors showed any detectable inhibition | none of these inhibitors showed any detectable inhibition
